Measurements reported in PubChem BioAssay (NCI).
Where “and” joins values, the source holds several entries; their conditions need not be identical. Equal entries are not always repeated.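 Five compound concentrations were applied to cells in 96-well plates for 48 hours; endpoints were derived by simple linear interpolation of the resulting dose-response curve. GI50: concentration for 50% inhibition of growth. TGI marks complete inhibition of growth.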

Test system: MDA-MB-468 breast
Test: DTP human tumour cell line panel, 48 h

Compared with `IP(CCCCCCCCCCSc1n(Cc2ccc3ccccc3c2)c(-c2ccccc2)c(-c2ccccc2)[n+]1Cc1ccc2ccccc2c1)(c1ccccc1)(c1ccccc1)c1ccccc1`, `Oc1c(C(Nc2cccc3ccccc23)c2ccccc2)ccc2cccnc12` (stereo unspecified) is 6.7-fold higher in GI50: 267 nM for the first, 1790 nM for the second.

First: Cc1ccc(NC(=O)c2ccc(CN3CCN(C)CC3)c(C(F)(F)F)c2)cc1Oc1ccc(-c2[nH]nc3ncnc(N)c23)cc1
Second: COc1ccc(-c2nn(-c3ccc(NC(=O)c4ccc(Cl)c(C(F)(F)F)c4)cc3)cc2-c2ccncc2)cc1Cl
The GI50 of the first is 7.6-fold higher: 12200 nM for the first, 1600 nM for the second.

`Cc1oc2nc[nH]c(=O)c2c1C(=O)/C=C/c1ccc(Cl)cc1` and `O=C(/C=C/c1ccccc1)c1c[nH]c2ccccc2c1=O` are within 1.5-fold of each other in GI50: 1380 nM for the first, 1800 nM for the second.

Going from `COc1cc(/C=C/C(=O)c2cc(OC)c(OC)c(OC)c2)ccc1Oc1nc(NCCO)nc(N2CCOCC2)n1` to `COc1cccc(C(=O)Nc2ccc(CN3CCc4nc5cc(OC)c(OC)cc5cc43)cc2)c1`, the GI50 rises from 1710 nM to 4010 nM (2.3-fold).

`O=C(Nc1ccc(F)cc1)c1cc(-c2ccc(F)cc2F)ccc1O` and `COc1cc(-c2nn(-c3ccc(NC(=O)Nc4ccc(Cl)c(Cl)c4)cc3)cc2-c2ccncc2)ccc1Cl` are within 1.5-fold of each other in GI50: 2210 nM for the first, 2150 nM for the second.

First: O=C(/C=C/C12c3ccccc3C(c3ccccc31)C1C(=O)N(c3ccccc3)C(=O)C12)c1ccc(Cl)cc1 (stereo unspecified)
Second: O=C(/C=C1\C(=O)N(Cc2ccc([N+](=O)[O-])cc2)c2ccccc21)c1ccc(OCCN2CCCCC2)cc1
The GI50 of the first is 1.7-fold higher: 1880 nM for the first, 1110 nM for the second.

Going from `COc1cc(N2CCN(C(C)C)CC2)ccc1Nc1nc(Nc2cccc3ncccc23)c2cc[nH]c2n1` to `Cc1cc(N2CCN(C)CC2)nc(NCc2cc(Nc3ccnc4cc(Cl)ccc34)ccc2F)n1`, the GI50 falls from 3590 nM to 1670 nM (2.1-fold).

First: CCCCN(CCCC)c1ccc(C(=N)c2ccc(N(C)C)cc2)cc1
Second: CN(CCC#N)c1ccc(/C=C(\C#N)c2cccc(C(F)(F)F)c2)cc1
The GI50 of the first is 3.2-fold lower: 249 nM for the first, 797 nM for the second.

Going from `NC(=O)c1cc(-c2ccncc2)cc(-c2ccccc2)c1N` to `Oc1ccc(CSc2nnc(-c3ccncc3)n2-c2ccccc2)c2cccnc12`, the GI50 falls from 6440 nM to 1350 nM (4.8-fold).

Going from `COc1ccc2c(c1)[C@]1(C[C@H]1c1ccc3c(/C=C/c4ccc(CN5C[C@@H](C)O[C@@H](C)C5)cc4)n[nH]c3c1)C(=O)N2` to `COc1cc2c(c(OC)c1OC)C(=O)CC(c1cccc(NC(=O)c3ccc(Br)cc3)c1)O2` (stereo unspecified), the GI50 falls from 2990 nM to 1850 nM (1.6-fold).

Compared with `COc1cc(/C=N/Nc2ncnc3c2cnn3C(C)C)ccc1O`, `COc1ccc(Cl)cc1Nc1nc(C(F)(F)F)ccc1C(=O)N/N=C/c1ccc([N+](=O)[O-])cc1` is 8.2-fold lower in GI50: 9320 nM for the first, 1130 nM for the second.

First: Cc1cc2nc(C(Cl)Cl)nc(-c3cccs3)n2n1
Second: Cc1cc2cccnc2c2ncccc12
The GI50 of the first is 6.5-fold lower: 314 nM for the first, 2030 nM for the second.

First: COc1cc2ccccc2c2cc([N+](=O)[O-])oc12
Second: COc1ccc(C[n+]2c3ccccc3n3c4ccc(N)cc4ccc32)c(OC)c1OC
The GI50 of the first is 3.7-fold higher: 1030 nM for the first, 275 nM for the second.

Compared with `Cc1cc(Cc2cc(C)c(O)c(C)c2)cc(C)c1O`, `CCN(CC)C(=O)CC1=C(C)/C(=C/c2[nH]c(-c3ccc[nH]3)cc2OC)N=C1C` is 4.5-fold lower in GI50: 2550 nM for the first, 572 nM for the second.

Compared with `CN1CCN(CCCOc2cccc3nc(Nc4ccc(Cl)c(F)c4)ccc23)CC1`, `CN1CCN(c2ccc(-c3ccc4ncc(C#N)c(Nc5ccc(F)c(Cl)c5)c4c3)cc2)CC1` is 4-fold lower in GI50: 1720 nM for the first, 431 nM for the second.

Compared with `NC(C/[N+]([O-])=N/O)C(=O)O` (stereo unspecified), `CN(Cc1cnc(N)nc1N)c1ccc(C(=O)O)cc1` is higher in GI50: 7310 nM for the first, > 100000 nM for the second.

Going from `COc1cc(-c2n/c(=C\c3c(O)[nH]c4ccc(Cl)cc34)cc3c2=Nc2ccccc2-3)cc(OC)c1OC` to `N#CC(C#N)=Cc1c(-c2ccccc2)[nH]c2ccccc12`, the GI50 falls from 1730 nM to 955 nM (1.8-fold).

First: C=C1C(=O)O[C@H]2[C@H]1CC/C(Cn1cc(CNCCc3c[nH]c4ccc(Cl)cc34)nn1)=C\CC[C@@]1(C)O[C@@H]21
Second: CC1=CC[C@@H]2C(C)(C)C(=O)CC[C@@]2(C)[C@@H]1COc1ccc2ccc(=O)oc2c1
The GI50 of the first is 2.2-fold lower: 2190 nM for the first, 4830 nM for the second.

Compared with `O=[N+]([O-])c1cc([N+](=O)[O-])c(Cl)c(Cl)c1Cl`, `Cc1onc(-c2c(F)cccc2Cl)c1-c1ncc(-c2ccc(Cl)cc2)o1` is 14-fold higher in GI50: 250 nM for the first, 3490 nM for the second.

Going from `Cc1c(C)c2c(c(C)c1NC(=O)/C=C\C(=O)O)CCC(C)(CCCC(C)CCCC(C)CCCC(C)C)O2` (stereo unspecified) to `C=CCn1c(=O)c2cnc(Nc3ccc(N4CCN(C)CC4)cc3)nc2n1-c1ccc2c(n1)[C@@](O)(CC)CC2`, the GI50 falls from 1990 nM to 189 nM (11-fold).

Compared with `O=C(CCCn1c(=O)c2sc3ccccc3c2n2nnc(-c3ccccc3)c12)NCCc1cnc[nH]1`, `Cn1cc(C2=C(c3c4n(c5ccccc35)CCCC4)C(=O)NC2=O)c2ccccc21` is 3.1-fold higher in GI50: 1690 nM for the first, 5310 nM for the second.

Going from `IP(CCCCCCCCCCSc1n(Cc2ccc3ccccc3c2)c(-c2ccccc2)c(-c2ccccc2)[n+]1Cc1ccc2ccccc2c1)(c1ccccc1)(c1ccccc1)c1ccccc1` to `Oc1c(C(Nc2cccc3ccccc23)c2ccccc2)ccc2cccnc12` (stereo unspecified), the TGI rises from 918 nM to 4310 nM (4.7-fold).

Compared with `Cc1ccc(NC(=O)c2ccc(CN3CCN(C)CC3)c(C(F)(F)F)c2)cc1Oc1ccc(-c2[nH]nc3ncnc(N)c23)cc1`, `COc1ccc(-c2nn(-c3ccc(NC(=O)c4ccc(Cl)c(C(F)(F)F)c4)cc3)cc2-c2ccncc2)cc1Cl` is higher in TGI: 43900 nM for the first, > 100000 nM for the second.

`Cc1oc2nc[nH]c(=O)c2c1C(=O)/C=C/c1ccc(Cl)cc1` and `O=C(/C=C/c1ccccc1)c1c[nH]c2ccccc2c1=O` are within 1.5-fold of each other in TGI: 3870 nM for the first, 4410 nM for the second.

Compared with `COc1cc(/C=C/C(=O)c2cc(OC)c(OC)c(OC)c2)ccc1Oc1nc(NCCO)nc(N2CCOCC2)n1`, `COc1cccc(C(=O)Nc2ccc(CN3CCc4nc5cc(OC)c(OC)cc5cc43)cc2)c1` is 7.4-fold higher in TGI: 4300 nM for the first, 31900 nM for the second.

`O=C(Nc1ccc(F)cc1)c1cc(-c2ccc(F)cc2F)ccc1O` and `COc1cc(-c2nn(-c3ccc(NC(=O)Nc4ccc(Cl)c(Cl)c4)cc3)cc2-c2ccncc2)ccc1Cl` are within 1.5-fold of each other in TGI: 7480 nM for the first, 5720 nM for the second.

Compared with `O=C(/C=C/C12c3ccccc3C(c3ccccc31)C1C(=O)N(c3ccccc3)C(=O)C12)c1ccc(Cl)cc1` (stereo unspecified), `O=C(/C=C1\C(=O)N(Cc2ccc([N+](=O)[O-])cc2)c2ccccc21)c1ccc(OCCN2CCCCC2)cc1` is 2.4-fold lower in TGI: 5870 nM for the first, 2490 nM for the second.

First: COc1cc(N2CCN(C(C)C)CC2)ccc1Nc1nc(Nc2cccc3ncccc23)c2cc[nH]c2n1
Second: Cc1cc(N2CCN(C)CC2)nc(NCc2cc(Nc3ccnc4cc(Cl)ccc34)ccc2F)n1
The TGI of the first is 2.5-fold higher: 8840 nM for the first, 3590 nM for the second.

Going from `CCCCN(CCCC)c1ccc(C(=N)c2ccc(N(C)C)cc2)cc1` to `CN(CCC#N)c1ccc(/C=C(\C#N)c2cccc(C(F)(F)F)c2)cc1`, the TGI rises from 966 nM to > 100000 nM.

Going from `NC(=O)c1cc(-c2ccncc2)cc(-c2ccccc2)c1N` to `Oc1ccc(CSc2nnc(-c3ccncc3)n2-c2ccccc2)c2cccnc12`, the TGI falls from > 25000 nM to 16100 nM.

Going from `COc1ccc2c(c1)[C@]1(C[C@H]1c1ccc3c(/C=C/c4ccc(CN5C[C@@H](C)O[C@@H](C)C5)cc4)n[nH]c3c1)C(=O)N2` to `COc1cc2c(c(OC)c1OC)C(=O)CC(c1cccc(NC(=O)c3ccc(Br)cc3)c1)O2` (stereo unspecified), the TGI falls from > 92400 nM to 8010 nM.

Compared with `COc1cc(/C=N/Nc2ncnc3c2cnn3C(C)C)ccc1O`, `COc1ccc(Cl)cc1Nc1nc(C(F)(F)F)ccc1C(=O)N/N=C/c1ccc([N+](=O)[O-])cc1` is 6.7-fold lower in TGI: 24600 nM for the first, 3680 nM for the second.

Going from `Cc1cc2nc(C(Cl)Cl)nc(-c3cccs3)n2n1` to `Cc1cc2cccnc2c2ncccc12`, the TGI rises from 1540 nM to 5480 nM (3.6-fold).

Going from `COc1cc2ccccc2c2cc([N+](=O)[O-])oc12` to `COc1ccc(C[n+]2c3ccccc3n3c4ccc(N)cc4ccc32)c(OC)c1OC`, the TGI falls from 2360 nM to 1420 nM (1.7-fold).

Compared with `Cc1cc(Cc2cc(C)c(O)c(C)c2)cc(C)c1O`, `CCN(CC)C(=O)CC1=C(C)/C(=C/c2[nH]c(-c3ccc[nH]3)cc2OC)N=C1C` is 1.8-fold higher in TGI: 9750 nM for the first, 17900 nM for the second.

Compared with `CN1CCN(CCCOc2cccc3nc(Nc4ccc(Cl)c(F)c4)ccc23)CC1`, `CN1CCN(c2ccc(-c3ccc4ncc(C#N)c(Nc5ccc(F)c(Cl)c5)c4c3)cc2)CC1` is 1.6-fold lower in TGI: 3320 nM for the first, 2100 nM for the second.

`NC(C/[N+]([O-])=N/O)C(=O)O` (stereo unspecified) and `CN(Cc1cnc(N)nc1N)c1ccc(C(=O)O)cc1` cannot be ordered by TGI: > 500000 nM for the first, > 100000 nM for the second.

`COc1cc(-c2n/c(=C\c3c(O)[nH]c4ccc(Cl)cc34)cc3c2=Nc2ccccc2-3)cc(OC)c1OC` and `N#CC(C#N)=Cc1c(-c2ccccc2)[nH]c2ccccc12` are within 1.5-fold of each other in TGI: 4260 nM for the first, 5210 nM for the second.

First: C=C1C(=O)O[C@H]2[C@H]1CC/C(Cn1cc(CNCCc3c[nH]c4ccc(Cl)cc34)nn1)=C\CC[C@@]1(C)O[C@@H]21
Second: CC1=CC[C@@H]2C(C)(C)C(=O)CC[C@@]2(C)[C@@H]1COc1ccc2ccc(=O)oc2c1
The TGI of the first is 3.9-fold lower: 9190 nM for the first, 35900 nM for the second.

First: O=[N+]([O-])c1cc([N+](=O)[O-])c(Cl)c(Cl)c1Cl
Second: Cc1onc(-c2c(F)cccc2Cl)c1-c1ncc(-c2ccc(Cl)cc2)o1
The TGI of the first is lower: 723 nM for the first, > 100000 nM for the second.

First: Cc1c(C)c2c(c(C)c1NC(=O)/C=C\C(=O)O)CCC(C)(CCCC(C)CCCC(C)CCCC(C)C)O2 (stereo unspecified)
Second: C=CCn1c(=O)c2cnc(Nc3ccc(N4CCN(C)CC4)cc3)nc2n1-c1ccc2c(n1)[C@@](O)(CC)CC2
The TGI of the first is 5.7-fold higher: 3980 nM for the first, 698 nM for the second.

First: O=C(CCCn1c(=O)c2sc3ccccc3c2n2nnc(-c3ccccc3)c12)NCCc1cnc[nH]1
Second: Cn1cc(C2=C(c3c4n(c5ccccc35)CCCC4)C(=O)NC2=O)c2ccccc21
The TGI of the first is lower: 3680 nM for the first, > 25000 nM for the second.

With `COc1cc(NS(C)(=O)=O)ccc1Nc1c2ccccc2nc2c(C)cccc12` the GI50 was 236 nM and 298 nM.

For `COc1cc(NS(C)(=O)=O)ccc1Nc1c2ccccc2nc2c(C)cccc12`, the TGI was 779 nM and 1670 nM.
